This is an account of results in patent US4684644A, “Basic monocarboxyamide derivatives of actagardine having antibiotic activity and compositions thereof” (Gruppo Lepetit S.p.A., priority 1985, dated 1987).

The test system of data set [1] is S. salivarius L 1323. The data set is described as follows: In vitro antibacterial activity (MIC), S. salivarius L 1323. The settings on record: S. salivarius L 1323, clinical isolate; 2% bovine serum. The format is cell-based. The protocol: (§1) Minimal inhibitory concentration (MIC) are determined by the twofold serial dilution method in Brain heart infusion broth (Difco); it is supplemented with 2% bovine serum when streptococci are tested. The inoculum size is about 10^3 colony units per ml (CFU/ml). The MIC is defined as the lowest concentration which prevents visible growth after overnight incubation at 37° C. The influence of serum is determined on S. aureus Tour by adding 30% bovine serum to the medium. […] The antimicrobial activities of the compounds of the invention in comparison with reference compound (actagardine) are reported in the following Table IV:
(§2) ^(3) Clinical isolates.

In data set [2] the test system is S. mitis L 1320. Description: In vitro antibacterial activity (MIC), S. mitis L 1320. It counts as cell-based. The settings on record: S. mitis L 1320, clinical isolate; 2% bovine serum. The protocol: as §1, §2
Data set [3] relates to S. faecalis D L 1321. Description: In vitro antibacterial activity (MIC), S. faecalis D L 1321. It counts as cell-based. As to conditions: S. faecalis D L 1321, clinical isolate; 2% bovine serum. On the procedure:
as §1, §2

Data set [4] has as its system S. pyogenes C 203. Description: In vitro antibacterial activity (MIC), S. pyogenes C 203. It counts as cell-based. As to conditions: 2% bovine serum, ~10^3 CFU/ml. The protocol:
as §1, with “IV: […]” for “IV:”

The subject of data set [5] is S. pneumoniae UC 41. Description: In vitro antibacterial activity (MIC), S. pneumoniae UC 41. It counts as cell-based. As to conditions: 2% bovine serum, ~10^3 CFU/ml. On the procedure:
as §1, with “IV: […]” for “IV:”

The subject of data set [6] is S. aureus TOUR. Description: In vitro antibacterial activity (MIC), S. aureus TOUR. It counts as cell-based. The protocol:
Minimal inhibitory concentration (MIC) are determined by the twofold serial dilution method in Brain heart infusion broth (Difco); it is supplemented with 2% bovine serum when streptococci are tested. […] The MIC is defined as the lowest concentration which prevents visible growth after overnight incubation at 37° C. The influence of serum is determined on S. aureus Tour by adding 30% bovine serum to the medium. […] The antimicrobial activities of the compounds of the invention in comparison with reference compound (actagardine) are reported in the following Table IV:
^(2) In the presence of 30% bovine serum

Data set [7] concerns S. bovis D L 1325. Description: In vitro antibacterial activity (MIC), S. bovis D L 1325. The format is cell-based. As to conditions: S. bovis D L 1325, clinical isolate; 2% bovine serum. On the procedure: as §1, §2
Data set [8] deals with S. pyogenes C 203. Description: In vivo test in mice experimentally infected with S. pyogenes C 203. As to conditions: mice infected i.p. with S. pyogenes C 203; s.c. once a day for three days; survival on 10th day. The protocol:
(§3) The antimicrobial activity of the compounds of the invention is also confirmed in in vivo test in mices experimentally infected with S. pyogenes or S. pneumoniae. The experiments are conducted essentially as described by R. Pallanza et al., J. Antimicrob. Chemother. 11, 419 (1983).
(§4) The experimental infection was induced in mice by intraperitoneally administering a suspension of the test pathogens. Inocula had been adjusted so that the untreated animals died of septicemia within 48 h. Animals were treated subcutaneously with the test compound once a day for three days starting about 30 min after infection.
(§5) The ED50 value was calculated on the 10th day by the method of Spearman and Karber (D. J. Finney "Statistical Method in Biological Assay", Griffin, page 524, 1952) on the basis of the percentage of survival at each dose.

The test system of data set [9] is S. sanguis H L 1324. The data set is described as follows: In vitro antibacterial activity (MIC), S. sanguis H L 1324. The format is cell-based. The settings on record: S. sanguis H L 1324, clinical isolate; 2% bovine serum. The protocol:
as §1, §2

The subject of data set [10] is S. pneumoniae UC41. The data set is described as follows: In vivo test in mice experimentally infected with S. pneumoniae UC41. As to conditions: mice infected i.p. with S. pneumoniae UC41; s.c. once a day for three days; survival on 10th day. On the procedure:
as §3, §4, §5

A short description of data set [11]: Solubility in water. As to conditions: for Solubility in water, pH 4.0 / Solubility in water, pH 7.3: approximate values.
The nature of data set [12]: Acid-base titration in MCS:H2O (pK of basic functions). It counts as physicochemical. As to conditions: MCS:H2O 4:1 (v/v). On the procedure: ^(2) Acid-base titrations were carried out in both aqueous
[methylcellosolve (MCS): water 4:1 (v/v)] and nonaqueous [pyridine or
acetic acid] solvents. The pKMCS values (pK2) of the additional
basic functions were determined in MCS:H2 O 4:1 (v/v) solution by
titration of the compounds with 0.01 N Na OH. The presence of the free
amino group of actagardine (pKMCS 6.3) in the derivatives, except
compound XIII, was confirmed by titration with 0.01 N HCl. Compound XIII
equivalent weights (E W) were obtained by titration with either
hydroxytetrabutylamine (HTBA) in pyridine or perchloric acid (HClO4)
actagardine (pKMCS 6.3) unmodified. Titration in MCS:H2 O 4:1

Data set [13] is described as follows: Partition coefficient (log P) between n-octanol and water. The format is physicochemical. The protocol:
^(3) Partition coefficients (log P) were determined between noctanol
and water. The concentration of the compounds in each phase was determine
spectrophotometrically (UV).
^(6) 0.1 M acetate buffer pH 3.0.
is log P between noctanol and 0.1 M phosphate buffer pH 7.3.

Data set [14] deals with S. viridans L 1322. Description: In vitro antibacterial activity (MIC), S. viridans L 1322. The format is cell-based. As to conditions: S. viridans L 1322, clinical isolate; 2% bovine serum. On the procedure: as §1, §2
In data set [15] the test system is S. pyogenes C 203. The data set is described as follows: Bactericidal activity against growing cells of S. pyogenes C 203. It counts as cell-based. As to conditions: 10 times the MIC, Todd-Hewitt broth, 37° C. On the procedure: The antibacterial activity of compound III (a and b) was compared with that of actagardine against growing cells of S. pyogenes C 203. […] For compound III, this level of killing action was obtained also at a dose equal to the MIC (0.4 ug/ml). This comparison was carried out on Todd-Hewitt broth(s) containing compound III and actagardine at concentrations equal to or multiple of the MIC which were inoculated with growing cells of S. pyogenes C 203 (~10^6 CFU/ml). The cultures were incubated at 37° C. with shaking and viable cells were counted at intervals.

In data set [16] the test system is gram-positive organisms. As to conditions: in vitro and in vivo; cited from earlier work.
[17] abbreviates: n-octanol/0.1 M acetate buffer pH 3.0.
Where [18] appears, read: in the presence of 30% bovine serum.

Read-outs that look alike come from different tables or passages of the source.

One may read the MIC as the smallest concentration in the dilution series that meets the test's criterion for growth inhibition. A word on the ED50: it is the dose that gives a 50% effect, or the effect in half of the subjects. Take “N-ethyl actagardine 3,3-dimethylamino-1-propylamide monocarboxamide [Compound XIII]”: the MIC in data set [1] was determined as 0.8 µg/mL; in data set [2], 3.1 µg/mL; in [3] it was 100 µg/mL; in [4], 0.8 µg/mL; in [5], 12.5 µg/mL; in data set [6] (inoculum 10^3 CFU/ml) it was 50 µg/mL. Also, the MIC came out at 25 µg/mL in data set [7] and 50 µg/mL in data set [9]. Further, the ED50 in [8] came out at 0.23 mg/kg.

Take “actagardine 3,3-dimethylamino-1-propylamide monocarboxamide, hydrochloride [IIIb]”: in data set [10], the ED50 came to 3.5 mg/kg. Also, in data set [11], the “Solubility in water, pH 4.0” value was 600 mg/ml and the “Solubility in water, pH 7.3” value stood at 200 mg/ml. This substance also came in with an ED50 in [8] of 0.47 mg/kg. For the same substance, the “pk2 (MCS/H2O)” value in [12] (pKMCS of additional basic function, titration with 0.01 N NaOH) was found to be 9.2. Moreover, the “Partition Coeff. (log P), CH3(CH2)7OH/H2O, pH 3” value (“Partition Coeff. (log P) … pH 3” below) in data set [13] (setting [17]) is recorded as -1.644.

On to “actagardine N-(2-aminoethyl)-1,2-ethanediamine monocarboxamide [IV]”, for which the “Solubility in water, pH 4.0” value was 100 mg/ml. The substance further registered an MIC in [1] of 0.8 µg/mL. The MIC in data set [2] was determined as 3.1 µg/mL. Besides, in data set [14], the MIC turned out to be 25 µg/mL. Further, the MIC in data set [3] stood at 100 µg/mL. Also, in [4], the MIC is 0.8 µg/mL. Further, the MIC in [5] stood at 12.5 µg/mL. Besides, in data set [6] (setting [18]), the MIC is 12.5 µg/mL. This substance showed an MIC in data set [6] (inoculum 10^3 CFU/ml) of 50 µg/mL. This substance also returned an MIC in data set [6] (inoculum 10^6 CFU/ml) of 50 µg/mL. In addition, in data set [7], the MIC is 25 µg/mL. This substance also displayed an ED50 in [8] of 0.62 mg/kg. Also, the MIC in data set [9] came out at 50 µg/mL. For the same substance, the “Partition Coeff. (log P) … pH 3” value in data set [13] (0.1 m acetate buffer, pH 3) was -1.353. Besides, in data set [13] (distilled water), the “Partition Coeff. (log P), CH3(CH2)7OH/H2O, H2O” value was -0.680.

Regarding actagardine [reference compound], the killing effect in data set [15] (24 h) stood at 99.9%; in data set [15] (after 5 h of incubation), 99%. Also, the MIC was found to be 3.1 µg/mL in data set [1]; 12.5 µg/mL in data set [2]; 100 µg/mL in data set [14]; 100 µg/mL in data set [3]; 1.6 µg/mL in data set [4]; 25 µg/mL in data set [5]. The minimum inhibitory concentration (MIC) in [6] (setting [18]) is 25 µg/mL; in [6] (inoculum 10^3 CFU/ml), 25 µg/mL; in data set [6] (inoculum 10^6 CFU/ml), 50 µg/mL; in data set [7] it was 100 µg/mL; in data set [9], 100 µg/mL. Besides, the “antimicrobial activity (in words)” value in data set [16] is “antimicrobial in vitro and in vivo activity against gram-positive organisms”. In [11] (acid form), the “solubility in water (in words)” value was “not soluble in water”. For the same substance, the “Solubility in water, pH 4.0” value in [11] is listed as less than 10 mg/ml. The “Solubility in water, pH 7.3” value in data set [11] was determined as 70 mg/ml. The substance further showed an ED50 in [8] of 0.81 mg/kg. Besides, the “pKMCS of the free amino group of actagardine” value in data set [12] (titration with 0.01 N HCl) came to 6.3. Also, in data set [13] (setting [17]), the “Partition Coeff. (log P) … pH 3” value is given as 0.357. The “log P between n-octanol and 0.1 M phosphate buffer pH 7.3” value in [13] (n-octanol/0.1 M phosphate buffer pH 7.3) is listed as -0.545.
